Laboratory results published in patent US6048853A, “1-arylphthalazine antagonists of excitatory amino acid receptors” (Bearsden Bio, Inc., priority 1996, dated 2000).
Like-named read-outs stand apart in the source and are kept apart here.

Legend:
Male NIH Swiss mice = assay: Maximum Electro Shock (MES) Seizure Test; format: in vivo
Experimental: This test is to determine the extent of protection by a test compound in a seizure model. This model is described by Rogawski et al. (Epilepsy Research, 15:179-184, 1993). Male NIH Swiss mice (25-30 g) were injected ip with the test drug. […] Animals failing to show tonic hind limb extension were scored as protected. Compounds may be selected which are active in this model.
The results of this assay using compounds prepared as described in Examples 49, 50 and 102 are shown below in Table 2.

Mice = assay: Subcutaneous Metrazol (scMET) Seizure Test; format: in vivo; conditions: dose 3 mg/kg; time 0.5 hr; Metrazol 90 mg/kg sc
Experimental: This test is to determine the extent of protection by a test compound in a seizure model. The method used is that of Chen et al. (Proc. Soc. Exp. Biol. Med., 87:334, 1954). Mice are randomly assigned to vehicle or treatment groups of 3-10 animals per group and then dosed accordingly. Metrazol (pentylenetetrazol) 90 mg/kg is administered subcutaneously (sc) at different time points (0.25, 0.5, 1, 2, 4 hr) after the treatment or control groups. The mice individually housed in clear runs and observed for the presence or absence of clonic seizure activity (>5 s duration) for 30 min after metrazol dosing. A compound is considered active if no seizure is observed. Data is analyzed using aquantal measure (protection/number tested).
The results of this assay using compounds prepared as described in Examples 49 and 50 are shown below in Table 3.

rat [1] = conditions: cited from earlier work
rat [2] = conditions: compared with NBQX; cited from earlier work

## Nc1ccc(-c2nncc3cc4c(cc23)OCO4)cc1 [Example 49, 1-(4-Aminophenyl)-6,7-methylendioxyphthalazine]
Male NIH Swiss mice; dose 3 mg/kg ip, time 0.5 hours
  MES Score (protected/no. tested): 1/1
Male NIH Swiss mice; dose 15 mg/kg ip, time 2 hours
  MES Score (protected/no. tested): 2/4
Mice
  scMET Score (protect./no. tested): 1/5

## Cc1nnc(-c2ccc(N)cc2)c2cc3c(cc12)OCO3 [Example 50, 4-(4-Aminophenyl)-1-methyl-6,7-methylenedioxyphthalazine]
Male NIH Swiss mice; dose 1 mg/kg ip, time 4 hours
  MES Score (protected/no. tested): 1/7
Mice
  scMET Score (protect./no. tested): 1/5

## CC(=O)Nc1ccc(-c2nnc(C)c3cc4c(cc23)OCO4)cc1 [Example 102, 4-(4-acetylaminophenyl)-1-methyl-6,7-methylenedioxyphthalazine]
Male NIH Swiss mice; dose 100 mg/kg ip, time 4 hours
  MES Score (protected/no. tested): 3/3

## CC1=NN=C(c2ccc(N)cc2)c2cc3c(cc2C1)OCO3 [GYKI 52466]
Rat [1]; given continuously for 2 hours just after occlusion
  reduction of cortical infarct volume: 68%
Rat [1]; given one hour after occlusion
  reduction of cortical infarct volume: 48%
Rat [2]
  efficacy in global ischemia model: as effective as the glutamate site competitive antagonist NBQX
